Read-outs that look alike come from different tables or passages of the source.
Columns and labels:
[1] = tested on: Hedgehog pathway activation (GLi-luciferase reporter) in Shh Light II reporter cells; assay: Hedgehog pathway activation on Shh Light II reporter cells measured by luciferase activity; type: cell-based; conditions: Mus musculus, Shh Light II
Method in brief: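 Shh Light II reporter cells carrying a hedgehog-responsive GLi-luciferase reporter were stimulated either with 500 nM SAG, a direct Smoothened agonist, or with conditioned media containing human Sonic Hedgehog (hShh). Test compounds were evaluated for blocking this pathway activation, quantified by luciferase activity. Cell viability was monitored in parallel with the Celltiter-Blue® assay.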

[2] = tested on: Hedgehog pathway activation on 10T1/2/Smo#3 cells (C3H10T1/2 cells transfected with human Smoothened receptor); assay: Hedgehog pathway activation on 10T1/2/Smo#3 cells measured by ALP activity; type: cell-based; conditions: Mus musculus, C3H 10T1/2, 10T1/2/Smo#3 cells
Method in brief: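 Inhibition of alkaline phosphatase induction, read fluorometrically from 4-methylumbelliferyl phosphate conversion, gave IC50 values; CellTiter-Blue tracked viability in parallel. Cells were the human Smo-transfected 10T1/2/Smo#3 pool, stimulated by 10-20% hShh conditioned medium or the Smo agonist SAG (500 nM).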

[3] = hShh activation, read-out: Shh (IC50, inhibition of Hedgehog pathway activation)
[4] = measured by ALP activity, read-out: ALP (IC50, inhibition of Hedgehog pathway activation)
[5] = SAG activation (500 nM SAG), read-out: Shh Light II luciferase activity (SAG activation)
[6] = hShh activation, read-out: Shh Light II luciferase activity (hShh activation)
[7] = hShh activation, ALP activity, read-out: 10T1/2/Smo#3 ALP activity (hShh Activation)

Structure (SMILES) | IC50 [1, 3] | IC50 [2, 4] | IC50 [1, 5] | IC50 [1, 6] | IC50 [2, 7]
O=C(Nc1cc(-c2cn3nc(-c4cccnc4C(F)(F)F)ccc3n2)ccc1F)C1CC1 [Example 681, N-(2-fluoro-5-(6-(2-(trifluoromethyl)pyridin-3-yl)imidazo[1,2-b]pyridazin-2-yl)phenyl)cyclopropanecarboxamide] | 976 nM | 6560 nM | – | – | –
Cc1ccc(-c2cn3cccnc3n2)cc1NC(=O)CC(C)(C)C [Example 89, N-(5-(imidazo[1,2-a]pyrimidin-2-yl)-2-methylphenyl)-3,3-dimethylbutanamide] | – | – | 3000 to 30000 nM | 3000 to 30000 nM | 3000 to 30000 nM
CC(C)(C)C(=O)Nc1cc(-c2cn3nc(-c4cncnc4)ccc3n2)ccc1C(F)(F)F [Example 372, N-(5-(6-(pyrimidin-5-yl)imidazo[1,2-b]pyridazin-2-yl)-2-(trifluoromethyl)phenyl)pivalamide] | 827 nM | 633 nM | – | – | –
CCC(CO)Nc1ccc2nc(-c3ccc(C(F)(F)F)c(NC(=O)C(C)(C)C)c3)cn2n1 (centres unmarked) [Example 303, N-(5-(6-(1-hydroxybutan-2-ylamino)imidazo[1,2-b]pyridazin-2-yl)-2-(trifluoromethyl)phenyl)pivalamide] | 994 nM | 783 nM | 300 to 3000 nM | 300 to 3000 nM | 300 to 3000 nM
CSc1ccc2nc(-c3ccc(C(F)(F)F)c(NC(=O)C(C)(C)C)c3)cn2n1 [Example 135, N-(5-(6-(methylthio)imidazo[1,2-b]pyridazin-2-yl)-2-(trifluoromethyl)phenyl)pivalamide] | 1250 nM | 5230 nM | – | – | –
CC(C)(C)C(=O)Nc1cc(-c2cn3nc(N4CCC(N5CCOCC5)CC4)ccc3n2)ccc1C(F)(F)F [Example 369, N-(5-(6-(4-morpholinopiperidin-1-yl)imidazo[1,2-b]pyridazin-2-yl)-2-(trifluoromethyl)phenyl)pivalamide] | 713 nM | 363 nM | 300 to 3000 nM | 300 to 3000 nM | 300 to 3000 nM
COc1ccc2nc(-c3ccc(Cl)c(NC(=O)C(C)(C)C(F)(F)F)c3)cn2n1 [Example 119, N-(2-chloro-5-(6-methoxyimidazo[1,2-b]pyridazin-2-yl)phenyl)-3,3,3-trifluoro-2,2-dimethylpropanamide] | 5650 nM | 4540 nM | 3000 to 30000 nM | 3000 to 30000 nM | 3000 to 30000 nM
CNC(=O)c1cccc(-c2ccc3nc(-c4ccc(C)c(NC(=O)C(C)(C)C)c4)cn3n2)c1 [Example 453, N-methyl-3-(2-(4-methyl-3-pivalamidophenyl)imidazo[1,2-b]pyridazin-6-yl)benzamide] | 582 nM | 751 nM | – | – | –
COc1ccc2nc(-c3ccc(Cl)c(NC(=O)C(C)(C)C)c3)cn2n1 [Example 110, N-(2-chloro-5-(6-methoxyimidazo[1,2-b]pyridazin-2-yl)phenyl)pivalamide] | > 10000 nM | 8040 nM | – | – | –
Cc1c(-c2ccccc2)nc2ccc(N3CCN(Cc4ccncc4)CC3)nn12 [Example 162, 3-methyl-2-phenyl-6-(4-(pyridin-4-ylmethyl)piperazin-1-yl)imidazo[1,2-b]pyridazine] | 1400 nM | 1110 nM | – | – | –
CN(CCO)c1ccc2nc(-c3ccc(C(F)(F)F)c(NC(=O)C(C)(C)C)c3)cn2n1 [Example 298, N-(5-(6-((2-hydroxyethyl)(methyl)amino)imidazo[1,2-b]pyridazin-2-yl)-2-(trifluoromethyl)phenyl)pivalamide] | 403 nM | 612 nM | – | – | –

Further lines, results first:

IC50 [1, 3] | IC50 [2, 4] | IC50 [1, 5] | IC50 [1, 6] | IC50 [2, 7] | Structure (SMILES)
123 nM | 109 nM | – | – | – | CC(C)(C)C(=O)Nc1cc(-c2cn3nc(N4CC[C@@H](O)C4)ccc3n2)ccc1C(F)(F)F [Example 341, (R)-N-(5-(6-(3-hydroxypyrrolidin-1-yl)imidazo[1,2-b]pyridazin-2-yl)-2-(trifluoromethyl)phenyl)pivalamide]
398 nM | 1090 nM | 300 to 3000 nM | 300 to 3000 nM | 300 to 3000 nM | COc1ccc2nc(-c3ccc(C)c(NC(=O)c4ccccc4F)c3)cn2n1 [Example 96, 2-fluoro-N-(5-(6-methoxyimidazo[1,2-b]pyridazin-2-yl)-2-methylphenyl)benzamide]
289 nM | 100 nM | – | – | – | CC(C)(C)C(=O)Nc1cc(-c2cn3nc(N4CCC(F)(F)C4)ccc3n2)ccc1C(F)(F)F [Example 236, N-(5-(6-(3,3-difluoropyrrolidin-1-yl)imidazo[1,2-b]pyridazin-2-yl)-2-(trifluoromethyl)phenyl)pivalamide]
339 nM | 174 nM | – | – | – | CCc1ccc(-c2cn3nc(-c4cccnc4C(F)(F)F)ccc3n2)cc1NC(=O)N1CCCC1 [Example 694, N-(2-ethyl-5-(6-(2-(trifluoromethyl)pyridin-3-yl)imidazo[1,2-b]pyridazin-2-yl)phenyl)pyrrolidine-1-carboxamide]
72 nM | 38 nM | – | – | – | Cc1ccc(-c2cn3nc(-c4cc(F)ccc4C(F)(F)F)ccc3n2)cc1NC(=O)C(C)(C)C [Example 281, N-(5-(6-(5-fluoro-2-(trifluoromethyl)phenyl)imidazo[1,2-b]pyridazin-2-yl)-2-methylphenyl)pivalamide]
208 nM | 96 nM | – | – | – | Cc1ccccc1-c1ccc2nc(-c3ccc(C(F)(F)F)c(NC(=O)C(C)(C)C)c3)cn2n1 [Example 241, N-(5-(6-o-tolylimidazo[1,2-b]pyridazin-2-yl)-2-(trifluoromethyl)phenyl)pivalamide]
146 nM | 637 nM | – | – | – | O=C(Nc1cc(-c2cn3nc(-c4cccnc4C(F)(F)F)ccc3n2)ccc1F)C1CCCCC1 [Example 677, N-(2-fluoro-5-(6-(2-(trifluoromethyl)pyridin-3-yl)imidazo[1,2-b]pyridazin-2-yl)phenyl)cyclohexanecarboxamide]
191 nM | 61 nM | – | – | – | CC(C)(C)C(=O)Nc1cc(-c2cn3nc(-c4c(F)cccc4F)ccc3n2)ccc1C(F)(F)F [Example 184, N-(5-(6-(2,6-difluorophenyl)imidazo[1,2-b]pyridazin-2-yl)-2-(trifluoromethyl)phenyl)pivalamide]
64 nM | 188 nM | – | – | – | CCc1ccc(-c2cn3nc(-c4cccnc4C(F)(F)F)ccc3n2)cc1NC(=O)C(C)(C)CC [Example 689, N-(2-ethyl-5-(6-(2-(trifluoromethyl)pyridin-3-yl)imidazo[1,2-b]pyridazin-2-yl)phenyl)-2,2-dimethylbutanamide]
138 nM | 296 nM | – | – | – | CC(C)(C)C(=O)Nc1cc(-c2cn3nc(N4CCC5(CC4)OCCO5)ccc3n2)ccc1C(F)(F)F [Example 371, N-(5-(6-(1,4-dioxa-8-azaspiro[4.5]decan-8-yl)imidazo[1,2-b]pyridazin-2-yl)-2-(trifluoromethyl)phenyl)pivalamide]
80 nM | 327 nM | – | – | – | Cc1ccc(-c2cn3nc(-c4ccc(C#N)cc4C(F)(F)F)ccc3n2)cc1NC(=O)C(C)(C)C [Example 478, N-(5-(6-(4-cyano-2-(trifluoromethyl)phenyl)imidazo[1,2-b]pyridazin-2-yl)-2-methylphenyl)pivalamide]
100 nM | 99 nM | – | – | – | Cc1ccc(-c2cn3nc(-c4ccc(C(N)=NO)cc4Cl)ccc3n2)cc1NC(=O)C(C)(C)C [compound 568]

— US8871767B2, “2-arylimidazo[1,2-B]pyridazine, 2-phenylimidazo[1,2-A]pyridine, and 2-phenylimidazo[1,2-A]pyrazine derivatives” (Hengrui (USA) Ltd., priority 2010, dated 2014)
